For assay [1], the target named is T1, HCV genotype 1b (BK) NS3 modified enzyme with a R155K mutation (Hepatitis C virus genotype 1b, UniProt P26663, R1181K).
T1 construct: HCV genotype 1b (BK) NS3 modified enzyme
The assay can be described thus: HCV NS3 protease time-resolved fluorescence (TRF) assay, genotype 1b R155K. The format is biochemical. The following applies: Ki 1b R155K. In a few lines: (§1)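 Time-resolved fluorescence, ex 340/em 615 nm, 400 μs delay; IC50 by four-parameter fit. Enzyme preincubated with compound 10 min, then TRF substrate 25 nM final added and reaction run 6 h at RT. Buffer HEPES pH 7.5 with NaCl, glycerol, Triton X-100, DTT, PEG 8000.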

Assay [2] deals with HCV NS3 protease genotype 3a (3A-1) (Hepatitis C virus genotype 3a, UniProt Q81258). The assay can be described thus: HCV NS3 protease time-resolved fluorescence (TRF) assay, genotype 3a. It counts as biochemical. The following applies: Ki 3a. In a few lines: as §1
Where [3] appears, read: first of two values printed in the cell (not explained).
The mark [4] stands for this setting: second of two values printed in the cell (not explained).

Where a name gives a salt, the structure may show the parent alone.

In general, Ki refers to the dissociation constant of the complex between target and ligand, obtained from inhibition or displacement. Higher therefore signals weaker binding. On to `C=C[C@@H]1C[C@]1(NC(=O)[C@@H]1C[C@@H]2CN1C(=O)[C@H](C1CCCCC1)NC(=O)O[C@@H]1C[C@H]1CCCCCc1c(nc3ccccc3c1OCCCNC1CC1)O2)C(=O)NS(=O)(=O)C1(C)CC1` [Example 241, N-(3-{[(1aR,5S,8S,10R,22aR)-5-cyclohexyl-8-{[(1R,2S)-2-ethenyl-1-{[(1-methylcyclopropyl)sulfonyl]carbamoyl}cyclopropyl]carbamoyl}-3,6-dioxo-1,1a,3,4,5,6,9,10,18,19,20,21,22,22a-tetradecahydro-8H-7,10-methanocyclopropa[18,19][1,10,3,6]dioxadiazacyclononadecino[11,12-b]quinolin-17-yl]oxy}propyl)cyclopropanaminium formate], for which the Ki in assay [1] (setting [3]) amounted to 0.021 nM; in assay [1] (setting [4]) it was 0.162 nM; in assay [2], 2.79 nM.
In the same order, the values of `C=C[C@@H]1C[C@]1(NC(=O)[C@@H]1C[C@@H]2CN1C(=O)[C@H](C1CCCCC1)NC(=O)O[C@@H]1C[C@H]1CCCCCc1c(nc3ccccc3c1OCCCNC1CCC1)O2)C(=O)NS(=O)(=O)C1(C)CC1` [Example 242, N-(3-{[(1aR,5S,8S,10R,22aR)-5-cyclohexyl-8-{[(1R,2S)-2-ethenyl-1-{[(1-methylcyclopropyl)sulfonyl]carbamoyl}cyclopropyl]carbamoyl}-3,6-dioxo-1,1a,3,4,5,6,9,10,18,19,20,21,22,22a-tetradecahydro-8H-7,10-methanocyclopropa[18,19][1,10,3,6]dioxadiazacyclononadecino[11,12-b]quinolin-17-yl]oxy}propyl)cyclobutanaminium formate] are 0.013 nM, 0.072 nM and 0.935 nM.
The corresponding values for `C=C[C@@H]1C[C@]1(NC(=O)[C@@H]1C[C@@H]2CN1C(=O)[C@H](C1CCCCC1)NC(=O)O[C@@H]1C[C@H]1CCCCCc1c(nc3ccccc3c1OCCCNC1CC(F)(F)C1)O2)C(=O)NS(=O)(=O)C1(C)CC1` [Example 243, (1aR,5S,8S,10R,22aR)-5-cyclohexyl-17-{3-[(3,3-difluorocyclobutyl)amino]propoxy}-N-[(1R,2S)-2-ethenyl-1-{[(1-methylcyclopropyl)sulfonyl]carbamoyl}cyclopropyl]-3,6-dioxo-1,1a,3,4,5,6,9,10,18,19,20,21,22,22a-tetradecahydro-8H-7,10-methanocyclopropa[18,19][1,10,3,6]dioxadiazacyclononadecino[11,12-b]quinoline-8-carboxamide] are 0.033 nM, 0.275 nM and 3.31 nM.
Regarding `C=C[C@@H]1C[C@]1(NC(=O)[C@@H]1C[C@@H]2CN1C(=O)[C@H](C(C)(C)C)NC(=O)O[C@@H]1C[C@H]1CCCCCc1c(nc3ccccc3c1-c1ccncc1)O2)C(=O)NS(=O)(=O)C1(C)CC1` [Example 244, (1aR,5S,8S,10R,22aR)-5-tert-butyl-N-[(1R,2S)-2-ethenyl-1-{[(1-methylcyclopropyl)sulfonyl]carbamoyl}cyclopropyl]-3,6-dioxo-17-(pyridin-4-yl)-1,1a,3,4,5,6,9,10,18,19,20,21,22,22a-tetradecahydro-8H-7,10-methanocyclopropa[18,19][1,10,3,6]dioxadiazacyclononadecino[11,12-b]quinoline-8-carboxamide], the Ki came to 1.59 nM in assay [1] (setting [3]), 1.65 nM in assay [1] (setting [4]) and 296 nM in assay [2].
In the same order, the values of `C=C[C@@H]1C[C@]1(NC(=O)[C@@H]1C[C@@H]2CN1C(=O)[C@H](C(C)(C)C)NC(=O)O[C@@H]1C[C@H]1CCCCCc1c(nc3ccccc3c1-c1ccccn1)O2)C(=O)NS(=O)(=O)C1(C)CC1` [Example 245, (1aR,5S,8S,10R,22aR)-5-tert-butyl-N-[(1R,2S)-2-ethenyl-1-{[(1-methylcyclopropyl)sulfonyl]carbamoyl}cyclopropyl]-3,6-dioxo-17-(pyridin-2-yl)-1,1a,3,4,5,6,9,10,18,19,20,21,22,22a-tetradecahydro-8H-7,10-methanocyclopropa[18,19][1,10,3,6]dioxadiazacyclononadecino[11,12-b]quinoline-8-carboxamide] are 0.546 nM, 1.41 nM and 128 nM.
In the same order, the values of `C=C[C@@H]1C[C@]1(NC(=O)[C@@H]1C[C@@H]2CN1C(=O)[C@H](C(C)(C)C)NC(=O)O[C@@H]1C[C@H]1CCCCCc1c(nc3ccccc3c1-c1cccnc1)O2)C(=O)NS(=O)(=O)C1(C)CC1` [Example 246, (1aR,5S,8S,10R,22aR)-5-tert-butyl-N-[(1R,2S)-2-ethenyl-1-{[(1-methylcyclopropyl)sulfonyl]carbamoyl}cyclopropyl]-3,6-dioxo-17-(pyridin-3-yl)-1,1a,3,4,5,6,9,10,18,19,20,21,22,22a-tetradecahydro-8H-7,10-methanocyclopropa[18,19][1,10,3,6]dioxadiazacyclononadecino[11,12-b]quinoline-8-carboxamide] are 1.02 nM, 1.14 nM and 211 nM.
The corresponding values for `C=C[C@@H]1CC1(NC(=O)[C@@H]1C[C@@H]2CN1C(=O)[C@H](C(C)(C)C)NC(=O)O[C@@H]1C[C@H]1CCCCCc1c(nc3ccccc3c1CN1CCOCC1)O2)C(=O)NS(=O)(=O)C1(C)CC1` (stereo partly drawn) [Example 248, potassium {[(1R,2S)-1-({[(1aR,5S,8S,10R,22aR)-5-tert-butyl-17-(morpholin-4-ylmethyl)-3,6-dioxo-1,1a,3,4,5,6,9,10,18,19,20,21,22,22a-tetradecahydro-8H-7,10-methanocyclopropa[18,19][1,10,3,6]dioxadiazacyclononadecino[11,12-b]quinolin-8-yl]carbonyl}amino)-2-ethenylcyclopropyl]carbonyl}[(1-methylcyclopropyl)sulfonyl]azanide] are 0.1 nM, 0.348 nM and 40.2 nM.
Turning to `C=C[C@@H]1C[C@]1(NC(=O)[C@@H]1C[C@@H]2CN1C(=O)[C@H](C1CCCCC1)NC(=O)O[C@@H]1C[C@H]1CCCCCc1c(nc3ccccc3c1OCCCN1CC(F)(F)C1)O2)C(=O)NS(=O)(=O)C1(C)CC1` [Example 249, (1aR,5S,8S,10R,22aR)-5-cyclohexyl-17-[3-(3,3-difluoroazetidin-1-yl)propoxy]-N-[(1R,2S)-2-ethenyl-1-{[(1-methylcyclopropyl)sulfonyl]carbamoyl}cyclopropyl]-3,6-dioxo-1,1a,3,4,5,6,9,10,18,19,20,21,22,22a-tetradecahydro-8H-7,10-methanocyclopropa[18,19][1,10,3,6]dioxadiazacyclononadecino[11,12-b]quinoline-8-carboxamide], the values for the Ki in assay [1] (setting [3]), in assay [1] (setting [4]) and in assay [2] were 0.026 nM, 0.5 nM and 7.55 nM, respectively.
In the same order, the values of `C=C[C@@H]1CC1(NC(=O)[C@@H]1C[C@@H]2CN1C(=O)[C@H](C1CCCCC1)NC(=O)O[C@@H]1C[C@H]1CCCCCc1c(nc3ccccc3c1OCCCN1CC(F)C1)O2)C(=O)NS(=O)(=O)C1(C)CC1` (stereo partly drawn) [Example 250] are 0.024 nM, 0.16 nM and 4.45 nM.
As for `C=C[C@@H]1C[C@]1(NC(=O)[C@@H]1C[C@@H]2CN1C(=O)[C@H](C1CCCCC1)NC(=O)O[C@@H]1C[C@H]1CCCCCc1c(nc3ccccc3c1OCCCN1CCN(C)CC1)O2)C(=O)NS(=O)(=O)C1(C)CC1` [Example 251, (1aR,5S,8S,10R,22aR)-5-cyclohexyl-N-[(1R,2S)-2-ethenyl-1-{[(1-methylcyclopropyl)sulfonyl]carbamoyl}cyclopropyl]-17-[3-(4-methylpiperazin-1-yl)propoxy]-3,6-dioxo-1,1a,3,4,5,6,9,10,18,19,20,21,22,22a-tetradecahydro-8H-7,10-methanocyclopropa[18,19][1,10,3,6]dioxadiazacyclononadecino[11,12-b]quinoline-8-carboxamide], the inhibition constant (Ki) was 0.015 nM in assay [1] (setting [3]), 0.051 nM in assay [1] (setting [4]) and 1.15 nM in assay [2].
In the case of `C=C[C@@H]1CC1(NC(=O)[C@@H]1C[C@@H]2CN1C(=O)[C@H](C1CCOCC1)NC(=O)O[C@@H]1C[C@H]1CCCCCc1c(nc3ccccc3c1OC1CCN(C)CC1)O2)C(=O)NS(=O)(=O)C1(C)CC1` (stereo partly drawn) [Example 252, potassium {[(1R,2S)-2-ethenyl-1-({[(1aR,5S,8S,10R,22aR)-17-[(1-methylpiperidin-4-yl)oxy]-3,6-dioxo-5-(tetrahydro-2H-pyran-4-yl)-1,1a,3,4,5,6,9,10,18,19,20,21,22,22a-tetradecahydro-8H-7,10-methanocyclopropa[18,19][1,10,3,6]dioxadiazacyclononadecino[11,12-b]quinolin-8-yl]carbonyl}amino)cyclopropyl]carbonyl}[(1-methylcyclopropyl)sulfonyl]azanide], the Ki in assay [1] (setting [3]) is 0.009 nM; in assay [1] (setting [4]) it was 0.022 nM; in assay [2] it was 0.088 nM.
In the same order, the values of `C=C[C@@H]1C[C@]1(NC(=O)[C@@H]1C[C@@H]2CN1C(=O)[C@H](C1CCCCC1)NC(=O)O[C@@H]1C[C@H]1CCCCCc1c(nc3ccccc3c1OC1CCOCC1)O2)C(=O)NS(=O)(=O)C1(C)CC1` [Example 253, (1aR,5S,8S,10R,22aR)-5-cyclohexyl-N-[(1R,2S)-2-ethenyl-1-{[(1-methylcyclopropyl)sulfonyl]carbamoyl}cyclopropyl]-3,6-dioxo-17-(tetrahydro-2H-pyran-4-yloxy)-1,1a,3,4,5,6,9,10,18,19,20,21,22,22a-tetradecahydro-8H-7,10-methanocyclopropa[18,19][1,10,3,6]dioxadiazacyclononadecino[11,12-b]quinoline-8-carboxamide] are 0.026 nM, 0.265 nM and 11 nM.

Values taken from US9328138B2 (priority 2011, dated 2016).
